Reference: publication PMC6407576, “Synthesis and evaluation of anticancer, antiphospholipases, antiproteases, and antimetabolic syndrome activities of some 3H-quinazolin-4-one derivatives” (Journal of Enzyme Inhibition and Medicinal Chemistry, 2019)
Values after ≈ are worked out from the molar mass of the structure shown. “Also recorded” adds a separate entry of the source. Like-named read-outs stand apart in the source and are kept apart here.

Key:
[1] = molecular target: T1, human group IIA (hG-IIA) sPLA2 (Homo sapiens, UniProt P14555); test: In vitro antiphospholipase activity; assay type: biochemical
T1 sequence (P14555 21-144): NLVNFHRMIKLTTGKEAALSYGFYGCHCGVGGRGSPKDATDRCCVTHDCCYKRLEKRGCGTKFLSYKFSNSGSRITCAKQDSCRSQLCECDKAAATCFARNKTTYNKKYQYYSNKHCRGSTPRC

[2] = molecular target: T2, human group V (hG-V) sPLA2 (Homo sapiens, UniProt P39877); test: In vitro antiphospholipase activity; assay type: biochemical
T2 sequence (P39877 21-138): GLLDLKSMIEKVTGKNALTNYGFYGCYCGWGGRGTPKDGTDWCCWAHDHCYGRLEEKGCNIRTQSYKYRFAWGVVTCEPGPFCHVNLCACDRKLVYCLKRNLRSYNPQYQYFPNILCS

[3] = molecular target: T3, human group X (hG-X) sPLA2 (Homo sapiens, UniProt O15496); test: In vitro antiphospholipase activity; assay type: biochemical
T3 sequence (O15496 43-165): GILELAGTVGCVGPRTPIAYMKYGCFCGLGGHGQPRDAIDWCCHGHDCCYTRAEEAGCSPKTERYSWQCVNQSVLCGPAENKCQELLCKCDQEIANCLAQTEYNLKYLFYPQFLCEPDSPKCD

[4] = molecular target: Naja mossambica mossambica sPLA2 (NmPLA2); test: In vitro antiphospholipase activity; assay type: biochemical; settings: 20 min preincubation, lecithin substrate, pH 7.6
[5] = molecular target: Apis mellifera bee venom (AmPLA2) (Apis mellifera, UniProt P00630); test: biochemical
cathepsin-B = cathepsin-B (Homo sapiens, UniProt P07858); test: In vitro antiprotease activity; assay type: biochemical
Experimental: (§1) The inhibitory effects of 21 3H-quinazolin-4-one derivatives on several available therapeutically important proteases such as cathepsin-B, collagenase, elastase, thrombin, and trypsin were investigated. […] The protease inhibitory activity was expressed as inhibition percentage, which was determined by comparison with a control experiment. The results were expressed as IC50 values that were determined from the standard curve. A protease inhibitor cocktail (Sigma) was used as the positive control.

collagenase = test: In vitro antiprotease activity; assay type: biochemical; settings: 15 min preincubation
Experimental: as §1

elastase = test: In vitro antiprotease activity; assay type: biochemical; settings: 15 min preincubation
Experimental: as §1

thrombin = thrombin (Homo sapiens, UniProt P00734); test: In vitro antiprotease activity; assay type: biochemical
Experimental: as §1

trypsin = molecular target: T4, trypsin (Bos taurus, UniProt P00760); test: In vitro antiprotease activity; assay type: biochemical
T4 construct: gene PRSS1
T4 sequence (P00760 24-246): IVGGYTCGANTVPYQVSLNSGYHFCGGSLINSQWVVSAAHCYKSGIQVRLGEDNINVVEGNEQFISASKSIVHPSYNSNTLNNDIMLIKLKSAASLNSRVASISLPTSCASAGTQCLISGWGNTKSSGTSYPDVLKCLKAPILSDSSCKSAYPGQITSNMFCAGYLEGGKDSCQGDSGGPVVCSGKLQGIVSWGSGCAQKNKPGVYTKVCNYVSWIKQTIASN
Experimental: as §1

α-glucosidase = molecular target: T5, α-glucosidase (Saccharomyces cerevisiae, UniProt P53341); test: In vitro inhibition of α-glucosidase activity; assay type: biochemical
T5 construct: purchased Sigma
Experimental: The colorimetric assay included 2 U of α-glucosidase, 5 mM of 4-NPGP, and 10 mM potassium phosphate buffer, pH 6.9. […] The reading assay was performed using a microplate reader at 405 nm. […] The results were expressed as IC50 determined from the curve.

xanthine oxidase = xanthine oxidase (Homo sapiens, UniProt P47989); test: In vitro inhibition of xanthine oxidase; assay type: biochemical
Experimental: The xanthine oxidase inhibitory activities of the examined chemical compounds were determined by following the formation of uric acid from xanthine according to the reported method by Bondet and co-workers[46]. […] The results were expressed as IC50 determined from the curve.

HT-29 cells [6] = test: MTT cell viability assay; assay type: cell-based, Human
Experimental: (§2) Human CRC cell lines, HT-29 and SW620 cells were grown in RPMI (Invitrogen) containing 10% heat-inactivated foetal bovine serum, 100 µg/ml streptomycin, 100 units/ml penicillin and 2 mmol/l L-glutamine.
(§3) Cell viability was determined using the 3-(4, 5-dimethylthiazolyl-2)–2, 5-diphenyltetrazolium bromide) MTT assay according to Mosmann[40]. 5-Fluorouracil (5-FU) was used as positive control. Briefly, after culturing cells in 96 well plates for 24 h, they were treated with different compounds (30 μg/ml) for 24 h. Freshly prepared MTT (5 mM) solutions were added to the cells and were further incubated for 2 h at 37 °C in 5% CO2. One hundred microliters of dimethyl sulphoxide (DMSO) was added in each well to dissolve the formazan crystal, formed in the reaction during incubation by careful pipetting. The absorbance of the product was measured at 540 nm using a microplate reader. The experiments were performed in triplicate for each condition. The graph illustrates the mean and standard deviation (SD) values of three independent experiments.

SW620 cells [7] = test: MTT cell viability assay; assay type: cell-based, Human
Experimental: as §2, §3

HT-29 cells [8] = test: Cytotoxicity assay using the xCELLigence system; assay type: cell-based, Human; settings: HT-29, 20 and 40 µg/ml, 3 d, xCELLigence RTCA
Experimental: (§4) The optimal seeding concentration for proliferation of HT-29 was determined. HT-29 cells (5000 cell in 150 µl medium/well) and SW620 cells (12,000 cell in 150 µl medium/well) were seeded in 16 well plates (E-plate 16-ACEA Biosciences Inc., San Diego, CA) as described in the xCELLigence Real Time Cell Analyzer (RTCA) DP instrument manual provided by the manufacturer. After 24 h, 20 and 40 µg/ml of compound 15d were added and the experiments were allowed to run for another 3 d. Baseline cell indexes were calculated for at least two measurements from three replicate experiments.

SW620 cells [9] = test: Cytotoxicity assay using the xCELLigence system; assay type: cell-based, Human; settings: SW620, 20 and 40 µg/ml, 3 d, xCELLigence RTCA
Experimental: as §4

Bcl2 = test: Western blotting of anti-apoptotic protein expression; assay type: cell-based, Human; settings: SW620 cells, various concentrations, 24 h, immunoblot
Experimental: (§5) Whole cell lysates were prepared using radioimmunoprecipitation assay (RIPA) lysis buffer as described by Al-Khayal and co-workers[41]. Total protein concentration was determined using Bradford protein reagent (Bio-Rad, Hercules, CA). Soluble proteins were loaded on precast TGX gels and were analysed using immunoblotting with anti-Bcl2, anti-BclxL (dilution 1:1000; Santa Cruz Biotechnology, Dallas, TX), and anti-β-actin (1:10,000 Sigma, St. Louis, MO). Reactivity was detected using horseradish peroxidase-conjugated secondary antibodies and chemiluminescence by Clarity Western ECL substrate (Bio-Rad). Membrane was developed using C-Digit Blot Scanner (LI-COR, Hamburg, Germany).
(§6) SW620 cells were treated with various concentrations of 15d for 24 h.

BclxL = test: as above; assay type: cell-based, Human; settings: SW620 cells, various concentrations, 24 h, immunoblot
Experimental: as §5, §6

HT-29 cells [10] = test: MTT cell viability assay; assay type: cell-based; settings: Homo sapiens, HT-29, read-out: IC50 (cell viability)
SW620 cells [11] = test: MTT cell viability assay; assay type: cell-based; settings: Homo sapiens, SW-620, read-out: IC50 (cell viability)

Chain of Apis mellifera bee venom (AmPLA2) (P00630 34-167 limits assumed): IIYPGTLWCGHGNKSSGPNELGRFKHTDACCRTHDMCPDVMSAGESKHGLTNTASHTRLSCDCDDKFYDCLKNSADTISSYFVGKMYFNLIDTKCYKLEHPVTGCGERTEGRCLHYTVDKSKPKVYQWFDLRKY
Chain of xanthine oxidase (P47989 whole entry, species assumed): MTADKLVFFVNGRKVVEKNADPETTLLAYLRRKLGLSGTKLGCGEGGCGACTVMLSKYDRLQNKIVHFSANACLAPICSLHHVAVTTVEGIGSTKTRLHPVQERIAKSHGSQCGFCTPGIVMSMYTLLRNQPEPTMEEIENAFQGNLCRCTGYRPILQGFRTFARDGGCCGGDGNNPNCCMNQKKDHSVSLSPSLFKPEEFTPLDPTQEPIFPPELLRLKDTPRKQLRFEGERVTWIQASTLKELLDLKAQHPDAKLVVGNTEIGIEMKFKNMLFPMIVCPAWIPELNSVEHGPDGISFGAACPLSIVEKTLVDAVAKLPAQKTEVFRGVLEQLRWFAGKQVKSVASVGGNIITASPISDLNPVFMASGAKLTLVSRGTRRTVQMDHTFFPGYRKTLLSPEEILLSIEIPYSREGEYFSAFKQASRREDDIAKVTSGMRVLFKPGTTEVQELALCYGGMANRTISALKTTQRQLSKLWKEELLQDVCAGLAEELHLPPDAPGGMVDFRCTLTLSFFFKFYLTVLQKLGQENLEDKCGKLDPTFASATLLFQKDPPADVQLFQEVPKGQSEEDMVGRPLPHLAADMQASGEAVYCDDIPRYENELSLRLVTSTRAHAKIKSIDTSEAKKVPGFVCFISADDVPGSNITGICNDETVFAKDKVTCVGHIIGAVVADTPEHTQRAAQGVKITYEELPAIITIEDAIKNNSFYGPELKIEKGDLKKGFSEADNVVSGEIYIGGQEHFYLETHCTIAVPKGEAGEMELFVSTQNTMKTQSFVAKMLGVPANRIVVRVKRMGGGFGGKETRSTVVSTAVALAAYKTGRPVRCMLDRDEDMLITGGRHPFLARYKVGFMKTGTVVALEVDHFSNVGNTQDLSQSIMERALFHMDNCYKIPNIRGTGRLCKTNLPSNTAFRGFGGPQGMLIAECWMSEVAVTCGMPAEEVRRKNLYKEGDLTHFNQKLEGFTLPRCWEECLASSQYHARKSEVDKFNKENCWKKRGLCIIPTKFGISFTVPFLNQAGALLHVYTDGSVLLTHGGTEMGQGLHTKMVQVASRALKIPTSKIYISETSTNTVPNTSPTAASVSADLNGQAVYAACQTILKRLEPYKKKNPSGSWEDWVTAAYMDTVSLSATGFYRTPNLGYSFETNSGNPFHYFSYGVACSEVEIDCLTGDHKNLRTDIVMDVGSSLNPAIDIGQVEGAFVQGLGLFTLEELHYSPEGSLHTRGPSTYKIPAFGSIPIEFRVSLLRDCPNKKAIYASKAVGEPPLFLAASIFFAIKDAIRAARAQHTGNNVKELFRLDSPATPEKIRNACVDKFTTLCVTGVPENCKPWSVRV
T5 sequence (P53341 whole entry): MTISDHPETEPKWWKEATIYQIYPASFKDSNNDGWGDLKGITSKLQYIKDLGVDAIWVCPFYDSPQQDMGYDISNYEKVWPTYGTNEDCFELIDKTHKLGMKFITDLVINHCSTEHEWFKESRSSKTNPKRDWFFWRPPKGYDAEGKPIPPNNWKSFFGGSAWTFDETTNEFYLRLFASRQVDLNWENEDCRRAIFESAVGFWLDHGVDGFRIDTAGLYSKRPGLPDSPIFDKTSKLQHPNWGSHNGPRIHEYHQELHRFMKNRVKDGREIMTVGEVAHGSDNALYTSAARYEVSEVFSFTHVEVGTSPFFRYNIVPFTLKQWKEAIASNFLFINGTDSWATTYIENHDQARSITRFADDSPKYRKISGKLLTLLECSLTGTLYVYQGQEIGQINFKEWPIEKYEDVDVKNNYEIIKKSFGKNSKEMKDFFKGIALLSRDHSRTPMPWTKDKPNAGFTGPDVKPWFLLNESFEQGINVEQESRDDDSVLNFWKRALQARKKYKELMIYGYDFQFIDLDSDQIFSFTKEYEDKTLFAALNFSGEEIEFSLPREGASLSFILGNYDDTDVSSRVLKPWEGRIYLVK

COc1cc(-n2c(C)nc3ccccc3c2=O)cc(OC)c1OC [Compound 5a, 2 -Methyl-3-(3,4,5-trimethoxy-phenyl)-3H-quinazolin-4-one]
IC50 [1]: 21.4 µM | IC50 [2]: 29.4 µM | IC50 [3]: 23.4 µM | mean IC50 against NmPLA2 [4]: 6.00 ± 0.71 µg/mL | IC50 [5]: 16.9 µM | IC50 (cathepsin-B): 25.3 µM | mean IC50 against Collagenase (collagenase): 12.25 ± 1.77 µg/mL | mean IC50 against Elastase (elastase): 23.5 ± 0.71 µg/mL | IC50 (thrombin): 67.4 µM | IC50 (trypsin): 88.9 µM | IC50 (α-glucosidase): 64.3 µM | IC50 (xanthine oxidase): 22.2 µM | melting point: 88 to 90 °C

Cc1ccc2nc(SCC(=O)Nc3c(C)cccc3C)n(-c3ccccc3)c(=O)c2c1 [Compound 15d, N-(2,6-Dimethyl-phenyl)-2-(6-methyl-4-oxo-3-phenyl-3,4-dihydro-quinazolin-2-ylsulfanyl) -acetamide]
inhibition of cell viability (in words) (HT-29 cells [6]; HT-29, 30 μg/ml, MTT): potently capable of inhibiting cell viability | viability at 30 µg/mL (HT-29 cells [6]; Homo sapiens, HT-29, 24 h, read-out: cell viability): 38% | viability at 30 µg/mL (SW620 cells [7]; Homo sapiens, SW-620, 24 h, read-out: cell viability): 36.7% | inhibition of cell viability (in words) (SW620 cells [7]; SW620, 30 μg/ml, MTT): potently capable of inhibiting cell viability | cell proliferation, real time (in words) (HT-29 cells [8]): inhibit the cell proliferation | cell proliferation, real time (in words) (SW620 cells [9]): inhibit the cell proliferation | expression of Bcl2 (Bcl2): down regulating; also recorded: inhibited | expression of BclxL (BclxL): down regulating; also recorded: inhibited | IC50 [1]: 16.6 µM | IC50 ([2]; 20 min preincubation, lecithin substrate, pH 7.6, read-out: mean IC50 against hG-V (converted)): 24.4 µM | IC50 ([3]; 20 min preincubation, lecithin substrate, pH 7.6, read-out: mean IC50 against hG-X (converted)): 54.7 µM | mean IC50 against NmPLA2 [4]: 8.50 ± 2.12 µg/mL | IC50 [5]: 14 µM | IC50 (cathepsin-B; 15 min preincubation, read-out: mean IC50 against Cathepsin-B (converted)): 9.31 µM | mean IC50 against Collagenase (collagenase): 10.50 ± 0.71 µg/mL | mean IC50 against Elastase (elastase): 15.50 ± 2.12 µg/mL | IC50 (thrombin; 15 min preincubation, read-out: mean IC50 against Thrombin (converted)): 39.6 µM | IC50 (trypsin; 15 min preincubation, read-out: mean IC50 against Trypsin (converted)): 32.6 µM | IC50 (xanthine oxidase): 165 µM | melting point: 229 to 230 °C | IC50 (HT-29 cells [10]): ~20 µg/mL (≈ 46.6 µM) | IC50 (SW620 cells [11]): ~20 µg/mL (≈ 46.6 µM)
